Three molecules from patent US8143307B2, “Benzothiophen-2-carbonylguanidine derivatives, preparation thereof, and pharmaceutical composition containing the same” (Korea Research Institute of Chemical Technology, priority 2004, dated 2012) can be followed below.

Experiment [1] deals with isolated ischemic rat heart. Nature of the experiment: Cardioprotective effect in isolated ischemic rat heart model (Langendorff). Particulars: 10 μM, 30 min global ischemia, 30 min reperfusion. As to the method: Male rats (300 450 g, the Korea Research Institute of Chemical Technology, Experimental Animal Lab) were anesthetized by intraperitoneal injection with sodium pentobarbital at a dose of 100 mg/kg and were intravenously administered with heparine at a dose of 1000 U/kg, followed by the excision of the heart. In detail, a tracheotomy was performed and a tracheal cannula (PE 240) was inserted into the trachea for subsequent artificial ventilation with room air using a rodent ventilator. […] A catheter tip manometer connected to a latex balloon filled with a mixture of ethanol and distilled water (1:1 v/v) was inserted via an incision in the left atrium into the left ventricle, and the intraventricular pressure thereof transmitted to the latex balloon was measured isovolumetrically with a transducer and recorded on a recording system (Linearcorder mark 8 WR 3500) with the aid of an amplifier (Plugsys bridge amplifier). After stabilizing the heart for 15 min, the balloon volume was adjusted to create a left ventricular end-diastolic pressure (LVEDP) of 5 mmHg during the initial baseline period. The volume of the balloon was maintained until the end of the experiment. Baseline heart contraction function, spontaneous heart rate (HR) and coronary flow (CF) were determined from the left ventricular contraction interval. The left ventricular developed pressure (LVDP), which is regarded as an index of contractile function of the isolated heart, was calculated by subtracting left ventricular end-diastolic pressure (LVEDP) from left ventricular peak systolic pressure (LVSP). In contrast to the heart in the body, the Langendorff heart cannot be measured for cardiac output and thus, RPP (rate-pressure product), which is an important indirect indicator for cardiac performance, was calculated by multiplying heart rate (HR) by LVDP. Throughout the experiment, the temperature of the heart was maintained constant by […] in a 37° C. physiological solution to which 95% O2/5% CO2 was continuously supplied. The heart thus stabilized was perfursed for 10 min with a solution of the compounds of the invention or control drugs in DMSO (dimethylsulfoxide) diluted with HBS (final DMSO conc. 0.04%), or with the solvent only (a negative control; 0.04% DMSO) and then measured again for contractile function, heart rate (HR) and coronary flow (CF). The supply of perfusates was completely stopped for 30 min in order to induce global ischemia in the heart, followed by reperfusion for 30 min. The indices (LVDP, HR, LVEDP, and CF) were measured again. After the reperfusion, the total level of lactate dehydrogenase (LDH) in the reperfusates was measured using a kit and taken as an index of ischemic myocardial injury. A negative control group was treated with the solvent only while cariporide was used as a positive control.

The next experiment concerns the target T1, Human NHE-1 (Homo sapiens, UniProt P19634).
T1 construct: expressed in transfected cells; host or cells: CCL39-derived PS120 cells (PS120/NHE-1)
Nature of the experiment: Inhibitory effect on NHE-1 in PS120/NHE-1 cells (recovery from intracellular acidosis, BCECF fluorescence). Format: cell-based. Particulars: human NHE-1 expressed PS120 cells; concentration at which recovery from intracellular acidosis was 50% inhibited. As to the method:
The benzothiophen-2-carbonylguanidine derivatives of the present invention were examined for NHE-1 inhibitory effect in cells according to the following procedure.
Human NHE-1 was expressed in CCL39-derived PS120 cells. These human NHE-1 expressed cells were cultured in DMEM (Dulbecco's modified Eagle's medium) supplemented with 10% fetal bovine serum, 1% penicillin/streptomycin (100× solution), 1% L-glutamine (200 mM aqueous solution). The PS120/NHE-1 cells grown in 100 mm dishes were treated with trypsin at 80-90% confluency, followed by washing with PBS (phosphate buffer saline) once, and then once with an Na-free buffer (138.2 mM Choline chloride, 4.9 mM KCl, […]. 2H2O, 1.2 mM MgSO4.7H2O, 1.2 mM KH2PO4, 15 mM D-glucose, 20 mM HEPES, at pH 7.4). After centrifugation, the pellet was suspended in an Na-free buffer containing 20 mM NH4Cl and 10 μM BCECF-AM [2′,7′-bis(2-carboxyethyl)-5,6-carboxy-fluorescein acetoxymethyl ester] and incubated at 37° C. for 30 min in a CO2 incubator. After being harvested by centrifugation, the PS120/NHE-1 cells were washed once with an Na-free buffer to remove both NH4Cl and extracellular BCECF-AM, suspended at a density of 2.5×10^4 cells/10 μl and stored at 4° C. in a dark room until reuse. In each well of 96-well microplates, 180 μl of HBS (137 mM NaCl, 4.9 mM KCl, 1.5 mM CaCl2. 2H2O, 1.2 mM MgSO4.7H2O, 1.2 mM KH2PO4, 15 mM D-glucose, 20 mM HEPES, at pH 7.4) and 10 μl of DMSO or 10 μl of a solution of the compound (0.03˜10 μM) of the present invention in DMSO were placed and well mixed, after which 10 μl aliquots of the intracellular acidosis-induced PS120/NHE-1 cells were added thereto. 4 min after the cell addition, fluorescence (excitation: 485/444 nm, emission: 535 nm) was measured in the GEMINI-XS Microplate Spectrofluorometer (Molecular Devices). The fluorescence measured was converted into pH values using a high-K^+/nigericin technique. The cells in which intracellular acidosis was induced with NH4Cl prepulses, were recovered to normal pH values through the operation of NHE-1. The inhibitory effect of the compound against NHE-1 was evaluated as concentrations at which the recovery from the intracellular acidosis to a normal state was 50% inhibited (IC50 values), with cariporide used as a control.

Experiment [2] concerns in vivo ischemic rat heart model. Nature of the experiment: Cardioprotective effect on in vivo ischemic rat heart model (coronary occlusion/reperfusion, infarct size). The settings on record: 45 min occlusion, 90 min reperfusion. On the procedure:
The cardioprotective effect of the benzothiophen-2-carbonylguanidine derivatives according to the present invention in in vivo ischemic hearts was judged with regard to their antischemic effects (myocardiac infarction reduction) on rats as follows.
Each male rat (300˜450 g, the Korea Research Institute of Chemical Technology, Experimental Animal Lab) was anesthetized by intraperitoneal injection with sodium pentobarbital at a dose of 75 mg/kg. Tracheotomy was performed and a tube was inserted into the trachea for subsequent artificial ventilation with a stroke volume of 10 ml/kg and a respiratory rate of 60 breaths/min. The femoral vein and the femoral artery were cannulated for the administration of the compounds and for the measurement of blood pressures, respectively. Meanwhile, the body temperature of the rats, an important factor to influence experimental results in the ischemic myocardiac injury model, was maintained constant at 37° C. using a homeothermic blanket control unit, with a body temperature-monitoring probe inserted into the rectum. Subsequently, rats were continuously measured for mean arterial blood pressure and heart rate HR throughout the experimental time period using a Statham P23XL pressure transducer (Grass Ins., Mass., USA) and an ECG/RATE Coupler (Hugo Sachs Electronic, Germany), respectively, with all continuous changes thereof recorded by Graphtec Linearcorder WR 3310 (Hugo Sachs Electronic).
The left coronary artery was occluded according to Selye H.'s method. In detail, after the chest of each rat was partially opened by left thoracotomy, the middle finger of the left hand was pressed against the right side of the chest of the rat to thrust out the heart which was then slightly fixed with the forefinger and the thumb of the same hand. Then, immediately after the left anterior descending coronary artery (LAD) was sutured with a 5-0 silk ligature, the heart was repositioned back in the thoracic cavity with both ends of the suture positioned outside. The ends of the suture were threaded through a PE tube (PE100, 2.5 cm) and allowed to stand for 20 min for stabilization. Through the cannula inserted into the femoral vein, a vehicle or the compounds of the invention were administered and 30 min was needed for sufficient effects of the administered compounds. Cariporide was used as a control. The ends of the suture threaded through the PE tube were pulled taut with hemostatic forceps to vertically press the PE tube against the coronary artery. After occlusion for 45 min, the hemostatic forceps were removed and reperfusion was conducted for 90 min.
The coronary artery was reoccluded in the same manner as described above, followed by the intravenous injection of 2 ml of 1% Evans blue. The intravenous injection of an excess of pentobarbital killed the rats, from which the hearts were then excised. The left ventricle was removed alone from the isolated heart and transected from the cardiac apex into 5 or 6 slices. Each slice was weighed. The image of each of the heart slices was captured using a Hi-scope, a compact vision system, and analyzed for blue-stained normal areas and non-stained areas with an image analyzing program (Image Pro Plus). In each slice, the area at risk (AAR) was calculated by multiplying the ratio of the non-stained area to the total area of the slice with the weight of the slice. Sum of the individual area at risk (AAR) for each slice was divided by the total weight of the left ventricle to obtain AAR (%) according to the following mathmatical formula 1.
Separately, the heat slices were incubated in 1%. 2,3,5-triphenyltetrazolium chloride (TTC) phosphate buffer (pH 7.4), 37° C., for 15 min and fixed in 10% formalin for 20˜24 hours. In the normal area of the tissue, 2,3,5-triphenyltetrazolium chloride was reduced by the myocardial dehydrogenase in the presence of the cofactor NADH to form formazan dye, which appeared as a brick-red color. […]

What is called IC50 is the concentration needed to halve the response being measured. Low readings indicate greater potency in that assay, high ones weaker potency in that assay.

T1 sequence (P19634 whole entry): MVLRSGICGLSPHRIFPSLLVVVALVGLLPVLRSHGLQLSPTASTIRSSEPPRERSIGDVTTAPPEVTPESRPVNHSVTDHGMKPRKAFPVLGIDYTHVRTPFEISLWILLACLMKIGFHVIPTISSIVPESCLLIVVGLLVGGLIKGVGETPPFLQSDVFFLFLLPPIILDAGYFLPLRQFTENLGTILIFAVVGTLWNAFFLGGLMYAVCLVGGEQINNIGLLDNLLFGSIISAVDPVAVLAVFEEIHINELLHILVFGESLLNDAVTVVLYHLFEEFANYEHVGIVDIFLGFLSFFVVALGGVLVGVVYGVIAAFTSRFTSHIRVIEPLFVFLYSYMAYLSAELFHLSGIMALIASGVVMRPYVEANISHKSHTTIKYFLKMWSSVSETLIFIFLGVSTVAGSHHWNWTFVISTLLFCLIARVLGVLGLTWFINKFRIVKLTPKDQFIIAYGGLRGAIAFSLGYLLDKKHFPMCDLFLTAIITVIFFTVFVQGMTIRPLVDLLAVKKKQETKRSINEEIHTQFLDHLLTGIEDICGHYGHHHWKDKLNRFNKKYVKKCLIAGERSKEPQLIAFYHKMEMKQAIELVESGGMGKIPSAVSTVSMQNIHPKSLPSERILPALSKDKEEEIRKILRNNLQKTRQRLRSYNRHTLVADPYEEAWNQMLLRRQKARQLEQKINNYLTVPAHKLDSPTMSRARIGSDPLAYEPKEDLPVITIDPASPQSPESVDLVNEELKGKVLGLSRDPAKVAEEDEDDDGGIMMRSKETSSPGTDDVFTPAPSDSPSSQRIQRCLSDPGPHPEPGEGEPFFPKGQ

In the case of `CC(C)c1ccc(C(=O)NC(=N)N)cc1S(C)(=O)=O` [Cariporide, cariporide, reference compound], in experiment [1], the “LDH (free LDH level upon reperfusion)” value is 19.3 u/g, the “LVEDP (left ventricular end-diastolic pressure)” value (shortened to “LVEDP”) is 22.4 mmHg and the “RPP (rate-pressure product (LVDP × HR) % relative to the value before ischemia induction)” value was 69.8%. For the same molecule, on Human NHE-1, the IC50 turned out to be 680 nM. Moreover, the “Myocardiac infarction rate (IS/AAR, %)” value in experiment [2] (0.1 mg/kg intravenous) is 40.5%. Further, in experiment [2] (0.3 mg/kg intravenous), the “Myocardiac infarction rate (IS/AAR, %)” value came out at 37.9%.
On to `CCc1cccc2sc(C(=O)N=C(N)N)cc12.CS(=O)(=O)O` [Example 37, (4-Ethylbenzothiophene-2-Carbonyl)Guanidine Methanesulfonate], for which, in experiment [1], the “LDH (free LDH level upon reperfusion)” value stood at 7.1 u/g, the “LVEDP” value was 37.7 mmHg and the “RPP (rate-pressure product (LVDP × HR) % relative to the value before ischemia induction)” value turned out to be 43.4%. It took 270 nM to reach half-maximal inhibition against Human NHE-1 (IC50). Moreover, the “Myocardiac infarction rate (IS/AAR, %)” value in experiment [2] (0.1 mg/kg intravenous) amounted to 51.6%.
`CS(=O)(=O)O.NC(N)=NC(=O)c1cc2c(C(F)(F)F)cccc2s1` [Example 43, (4-Trifluoromethylbenzothiophene-2-Carbonyl)Guanidine Methanesulfonate]: in experiment [1], the “LDH (free LDH level upon reperfusion)” value was found to be 5.2 u/g, the “LVEDP” value was determined as 5.8 mmHg and the “RPP (rate-pressure product (LVDP × HR) % relative to the value before ischemia induction)” value is reported as 80.6%. The molecule further showed an IC50 against Human NHE-1 of 400 nM. In addition, the “Myocardiac infarction rate (IS/AAR, %)” value in experiment [2] (0.1 mg/kg intravenous) stood at 44.8%.
